# Literature values, collected in patent publication US20030114497A1 (priority 2001, published 2003).
# How the values were obtained:
# [1] = tested on: smooth muscle cell migration; conditions: see WO 95/25722
# calcium channel = conditions: see WO 95/05822
structure (smiles),measurement,setting,value
"CCOC(=O)C1=C(COCCN)NC(C)=C(C(=O)OC)[C@H]1c1ccccc1Cl (single isomer, unassigned) [R(+) isomer]",inhibition of smooth muscle cell migration,[1],potent inhibitor
same,calcium channel blocking activity,calcium channel,little or no calcium channel blocking activity
